Data from patent US12458599B2, “Bioactivatable devices and related methods” (CTI Vascular AG, priority 2020, dated 2025).
Where two headings read alike, the source gives them in different places.

How the values were obtained:
[1] = cited from earlier work
[2] = solubility of ATTM in solvents; format: physicochemical
Description: Preparation of Exemplary Coating Formulations: (NH4)2MoS4 (“ATTM” or ammoniumtetrathiomolybdate) as a representative compound for a pharmaceutically active copper chelating agent can be dissolved in a suitable solvent including, without limitation dimethyl acetamide, dimethylsulfoxide or tetramethylurea to provide a desired saturation concentration. […] The concentrated ATTM solution can be mixed with a variety of suitable matrix polymers commonly known to one of ordinary skill in the art, including, without limitation PVDF-HVP, PET, PLGA, PLLA, PHA, polyurethanes, polyphosphazenes, silicones and equivalents, in a suitable volume ratio to form a readily available coating formulation with a defined polymer to ATTM weight ratio per ml coating formulation. The matrix polymer solvent can be chosen to be mutually compatible with the ATTM solvent in order to avoid potential phase separation. The obtained deep red to orange solution can be centrifuged, and the supernatant filtered through a 0.22 μm PTFE filter to remove any solid residue. The finally obtained ATTM concentration can be determined via UV-Vis spectroscopy.

[3] = system: venous endothelial cell proliferation; conditions: cited from earlier work
IL-1α = conditions: cited from earlier work
aqueous solubility = format: physicochemical
Protocol: Solubility: Information on the actual quantitative solubility of solid Molybdenum disulfide can be sparse, and the compound can be often quoted as being insoluble in water. […] Thus, upon prolonged contact between MoS2 coated surface with an aqueous medium, a saturation concentration of 0.125-1.25 μM MoO4^2− can reasonably be expected.

SMILES	aqueous solubility ([1]; reported)	solubility in acetone, acetonitrile, cyclohexanone, methylisobutylketone [2]	solubility in dimethylacetamide, tetramethylurea, dimethylsulfoxide, N-methylpyrrolidone, ethylendiamine, pyridine, methanol, ethanediol and water [2]	systemic concentration sufficient to achieve inhibition of venous endothelial cell proliferation [3] [µM]	concentration inhibiting the release of IL-1α (IL-1α) [nM]	saturation concentration of MoO4^2− (aqueous solubility; prolonged contact of MoS2 coated surface with aqueous medium, expected) [µM]	predicted maximum aqueous saturation concentration of the molybdate species (TM0) (aqueous solubility; stemming from MoS2) [µM]	aqueous solubility ([1]; aqueous environments) [µM]
[NH4+].[NH4+].[SH-].[SH-].[S]=[Mo]=[S] [ATTM, Ammoniumtetrathiomolybdate; (NH4)2MoS4]	at least 7 mM	limited solubility	reasonable solubility	5	250			
[S]=[Mo]=[S] [MoS2, Molybdenum disulfide]						0.125 to 1.25	1.25	0.125 to 1.25
